Reference: patent US4439426A, “Semisynthetic macrolidic antibiotics, intermediate compounds for their preparation and related pharmaceutical compositions containing them” (priority 1981, dated 1984)
≈ marks a conversion by molar mass, not a printed value.

Tests used:
[1] = Stability in acidic environment at 25° C. (half-life of initial microbiological activity); assay type: physicochemical; conditions: aqueous solution
Protocol: Stability in acidic environnment at 25° C. of the novel
Note: t 1/2 represents the time for reducing to one half the initial powe
of the antibiotic determined by microbiological method through diffusion
on a plate using the test stock Microccocus luteus (Sarcina lutea) ATCC

[2] = test system: Micrococcus luteus ATCC 9341 LRP 6; assay: Bacteriostatic power in solid medium (MIC); assay type: cell-based; conditions: Micrococcus luteus, ATCC9341, read-out: Minimum inhibiting concentration
Excerpt: (§1) the bacteriostatic power, expressed as the minimum inhibiting concentration (MIC) against both aerobic and anaerobic, Gram positive and Gram negative, bacterial stocks: the related results are reported in the tables 2 and 3.

[3] = test system: Pseudomonas aeruginosa LRP 9; assay: Bacteriostatic power in solid medium (MIC); assay type: cell-based; conditions: Pseudomonas aeruginosa, LRP9, read-out: Minimum inhibiting concentration
Excerpt: as §1

[4] = test system: Streptococcus pyogenes ATCC 8668 LRP 34; assay: Bacteriostatic power in solid medium (MIC); assay type: cell-based; conditions: Streptococcus pyogenes, ATCC8668, read-out: Minimum inhibiting concentration
Excerpt: as §1

[5] = test system: Bacteroides fragilis ATCC 23745 LRP 205; assay: Bacteriostatic power in solid medium (MIC); assay type: cell-based; conditions: Bacteroides fragilis, ATCC23745, read-out: Minimum inhibiting concentration
Excerpt: as §1

[6] = test system: Staphylococcus aureus ATCC 14154 LRP 78; assay: Bacteriostatic power in solid medium (MIC); assay type: cell-based; conditions: Staphylococcus aureus, ATCC14154, read-out: Minimum inhibiting concentration
Excerpt: as §1

[7] = test system: Fusobacteriumnecrophroum ATCC 27852 LRP 210; assay: Bacteriostatic power in solid medium (MIC); assay type: cell-based; conditions: read-out: Minimum inhibiting concentration
Excerpt: as §1

[8] = test system: Micrococcus luteus ATCC 15957 LRP 193; assay: Bacteriostatic power in solid medium (MIC); assay type: cell-based; conditions: Micrococcus luteus, ATCC15957, read-out: Minimum inhibiting concentration
Excerpt: as §1

[9] = test system: Staphylococcus aureus ATCC 6538P LRP 39; assay: Bacteriostatic power in solid medium (MIC); assay type: cell-based; conditions: Staphylococcus aureus, ATCC6538P, read-out: Minimum inhibiting concentration
Excerpt: as §1

[10] = test system: Proteus vulgaris ATCC 6380 LRP 13; assay: Bacteriostatic power in solid medium (MIC); assay type: cell-based; conditions: Proteus vulgaris, ATCC6380, read-out: Minimum inhibiting concentration
Excerpt: as §1

[11] = test system: Acholeplasma laidlawii ATCC 23206 LRP 204; assay: Bacteriostatic power in solid medium (MIC); assay type: cell-based; conditions: Acholeplasma laidlawii, ATCC23206, read-out: Minimum inhibiting concentration
Excerpt: as §1

Bacillus subtilis LRP 25 = assay: Bacteriostatic power in solid medium (MIC); assay type: cell-based; conditions: Bacillus subtilis, LRP25, read-out: Minimum inhibiting concentration
Excerpt: as §1

Shigella sonnei LRP 5 = assay: Bacteriostatic power in solid medium (MIC); assay type: cell-based; conditions: LRP5, read-out: Minimum inhibiting concentration
Excerpt: as §1

[12] = test system: Mycoplasma hominis I ATCC 14027 LRP 211; assay: Bacteriostatic power in solid medium (MIC); assay type: cell-based; conditions: Metamycoplasma hominis, ATCC14027, read-out: Minimum inhibiting concentration
Excerpt: as §1

[13] = test system: Neisseria gonorrhoeae ATCC 19424 LRP 214; assay: Bacteriostatic power in solid medium (MIC); assay type: cell-based; conditions: Neisseria gonorrhoeae, ATCC19424, read-out: Minimum inhibiting concentration
Excerpt: as §1

Escherichia coli LRP 50 = assay: Bacteriostatic power in solid medium (MIC); assay type: cell-based; conditions: Escherichia coli, LRP50, read-out: Minimum inhibiting concentration
Excerpt: as §1

[14] = test system: Haemophilus influenzae ATCC 19418 LRP 213; assay: Bacteriostatic power in solid medium (MIC); assay type: cell-based; conditions: Haemophilus influenzae, ATCC19418, read-out: Minimum inhibiting concentration
Excerpt: as §1

[15] = test system: Streptococcus pneumoniae ATCC 6303 LRP 53; assay: Bacteriostatic power in solid medium (MIC); assay type: cell-based; conditions: Streptococcus pneumoniae, ATCC6303, read-out: Minimum inhibiting concentration
Excerpt: as §1

[16] = test system: Streptococcus pneumoniae ATCC 6303 LRP 35; assay: Bacteriostatic power in solid medium (MIC); assay type: cell-based; conditions: Streptococcus pneumoniae, ATCC6303, read-out: Minimum inhibiting concentration
Excerpt: as §1

[17] = test system: Staphylococcus aureus ATCC 6538P LRP 14; assay: Bacteriostatic power in solid medium (MIC); assay type: cell-based; conditions: Staphylococcus aureus, ATCC6538P, read-out: Minimum inhibiting concentration
Excerpt: as §1

[18] = test system: Streptococcus faecalis LRP 7; assay: Bacteriostatic power in solid medium (MIC); assay type: cell-based; conditions: Enterococcus faecalis, LRP7, read-out: Minimum inhibiting concentration
Excerpt: as §1

[19] = test system: Streptococcus pyogenes ATCC 8668 LRP 197; assay: Bacteriostatic power in solid medium (MIC); assay type: cell-based; conditions: Streptococcus pyogenes, ATCC8668, read-out: Minimum inhibiting concentration
Excerpt: as §1

[20] = test system: Klelsiella pneumoniae LRP 54; assay: Bacteriostatic power in solid medium (MIC); assay type: cell-based; conditions: read-out: Minimum inhibiting concentration
Excerpt: as §1

[21] = test system: Streptococcus pneumoniae ATCC 6303 LRP 52; assay: Bacteriostatic power in solid medium (MIC); assay type: cell-based; conditions: Streptococcus pneumoniae, ATCC6303, read-out: Minimum inhibiting concentration
Excerpt: as §1

[22] = test system: Streptococcus faecalis subsp. zymogenes ATCC 12958 LRP 61; assay: Bacteriostatic power in solid medium (MIC); assay type: cell-based; conditions: Enterococcus faecalis, ATCC12958, read-out: Minimum inhibiting concentration
Excerpt: as §1

[23] = test system: Corynebacterium diphteriae LRP 24; assay: Bacteriostatic power in solid medium (MIC); assay type: cell-based; conditions: Corynebacterium, LRP24, read-out: Minimum inhibiting concentration
Excerpt: as §1

[24] = test system: Clostridium perfrigens ATCC 3624 LRP 206; assay: microbe, parasite or virus in culture; assay type: cell-based; conditions: ATCC3624, solid medium, anaerobic, read-out: Minimum inhibiting concentration
Excerpt: as §1

Salmonella typhy LRP 8 = assay: microbe, parasite or virus in culture; assay type: cell-based; conditions: LRP8, solid medium, read-out: Minimum inhibiting concentration
Excerpt: as §1

[25] = test system: Staphylococcus aureus ATCC 6538 P LRP 39; assay: Bacteriostatic power in liquid medium (MIC); assay type: cell-based; conditions: Staphylococcus aureus, ATCC6538, read-out: Minimum inhibiting concentration
Excerpt: as §1

[26] = test system: Streptococcus pyogenes ATCC 8668 LRP 34; assay: Bacteriostatic power in liquid medium (MIC); assay type: cell-based; conditions: Streptococcus pyogenes, ATCC8668, read-out: Minimum inhibiting concentration
Excerpt: as §1

[27] = test system: Streptococcus faecalis subs. zymogenes ATCC 12958 LRP 61; assay: Bacteriostatic power in liquid medium (MIC); assay type: cell-based; conditions: Enterococcus faecalis, ATCC12958, read-out: Minimum inhibiting concentration
Excerpt: as §1

[28] = test system: Streptococcus pneumoniae ATCC 6303 LRP 35; assay: Bacteriostatic power in liquid medium (MIC); assay type: cell-based; conditions: Streptococcus pneumoniae, ATCC6303, read-out: Minimum inhibiting concentration
Excerpt: as §1

[29] = test system: Corynebacterium diphteriae LRP 24; assay: Bacteriostatic power in liquid medium (MIC); assay type: cell-based; conditions: Corynebacterium, LRP24, read-out: Minimum inhibiting concentration
Excerpt: as §1

[30] = test system: Staphylococcus aureus ATCC 6538 P LRP 39; assay: Minimum bactericidal concentration (MBC); assay type: cell-based
Excerpt: (§2) the bacterial power, expressed as the minimum bactericidal power (MBC) against some Gram positive aerobic stocks (table 5).

[31] = test system: Streptococcus pyogenes ATCC 8668 LRP 34; assay: Minimum bactericidal concentration (MBC); assay type: cell-based
Excerpt: as §2

[32] = test system: Streptococcus faecalis subs. zymogenes LRP 61; assay: Minimum bactericidal concentration (MBC); assay type: cell-based
Excerpt: as §2

[33] = test system: Streptococcus pneumoniae ATCC 6303 LRP 35; assay: Minimum bactericidal concentration (MBC); assay type: cell-based
Excerpt: as §2

[34] = test system: Corynebacterium diphteriae LRP 24; assay: Minimum bactericidal concentration (MBC); assay type: cell-based
Excerpt: as §2

`CC[C@H]1OC(=O)[C@H](C)[C@@H](O[C@H]2C[C@H](OC)[C@@H](O)[C@H](C)O2)[C@H](C)[C@@H](O[C@@H]2O[C@H](C)C[C@H](N(C)C)[C@H]2O)[C@](C)(O)C[C@](C)(F)C(=O)[C@H](C)[C@@H](O)[C@]1(C)O` [P-80207, 3-O-oleandrosyl-5-O-desosaminyl-(8S)-8-fluoroerythronolide A] gave a half-life ([1]; pH 2) of 10 h, a half-life ([1]; pH 3) of 100 h and an MIC [2] of 0.049 µg/mL (≈ 0.0664 µM). The MIC [3] was 25 µg/mL (≈ 33.9 µM), the MIC [4] was 0.049 µg/mL (≈ 0.0664 µM) and the MIC [5] was 3.12 µg/mL (≈ 4.23 µM). It also gave an MIC [6] of 25 µg/mL (≈ 33.9 µM), an MIC [7] of 12.5 µg/mL (≈ 16.9 µM) and an MIC [8] of 25 µg/mL (≈ 33.9 µM). For the same molecule, the MIC [9] was 0.39 µg/mL (≈ 0.529 µM), the MIC [10] was 25 µg/mL (≈ 33.9 µM) and the MIC [11] was 3.12 µg/mL (≈ 4.23 µM). The MIC (Bacillus subtilis LRP 25) was 0.39 µg/mL (≈ 0.529 µM), the MIC (Shigella sonnei LRP 5) was 25 µg/mL (≈ 33.9 µM) and the MIC [12] was 25 µg/mL (≈ 33.9 µM). It also gave an MIC [13] of 0.097 µg/mL (≈ 0.131 µM), an MIC (Escherichia coli LRP 50) of 25 µg/mL (≈ 33.9 µM) and an MIC [14] of 12.5 µg/mL (≈ 16.9 µM). It also gave an MIC [15] of 0.097 µg/mL (≈ 0.131 µM), an MIC [16] of 0.049 µg/mL (≈ 0.0664 µM) and an MIC [17] of 0.39 µg/mL (≈ 0.529 µM). The MIC [18] was 0.39 µg/mL (≈ 0.529 µM), the MIC [19] was 0.097 µg/mL (≈ 0.131 µM) and the MIC [20] was 25 µg/mL (≈ 33.9 µM). The MIC [21] was 0.049 µg/mL (≈ 0.0664 µM), the MIC [22] was 0.39 µg/mL (≈ 0.529 µM) and the MIC [23] was 0.049 µg/mL (≈ 0.0664 µM). For the same molecule, the MIC [24] was 6.25 µg/mL (≈ 8.47 µM), the MIC (Salmonella typhy LRP 8) was 25 µg/mL (≈ 33.9 µM) and the MIC [25] was 0.78 µg/mL (≈ 1.06 µM). For the same molecule, the MIC [26] was 0.097 µg/mL (≈ 0.131 µM), the MIC [27] was 0.78 µg/mL (≈ 1.06 µM) and the MIC [28] was 0.049 µg/mL (≈ 0.0664 µM). For the same molecule, the MIC [29] was 0.049 µg/mL (≈ 0.0664 µM), the MBC/MIC [30] was 8 and the MBC ([30]; Staphylococcus aureus, ATCC6538, read-out: Minimum bactericidal concentration (MBC)) was 6.25 µg/mL (≈ 8.47 µM). It also gave an MBC/MIC [31] of 8, an MBC ([31]; Streptococcus pyogenes, ATCC8668, read-out: Minimum bactericidal concentration (MBC)) of 0.78 µg/mL (≈ 1.06 µM) and an MBC/MIC [32] of 8. For the same molecule, the MBC ([32]; Enterococcus faecalis, read-out: Minimum bactericidal concentration (MBC)) was 6.25 µg/mL (≈ 8.47 µM), the MBC/MIC [33] was 2 and the MBC ([33]; Streptococcus pneumoniae, ATCC6303, read-out: Minimum bactericidal concentration (MBC)) was 0.097 µg/mL (≈ 0.131 µM). It also gave an MBC/MIC [34] of 4 and an MBC ([34]; Corynebacterium, LRP24, read-out: Minimum bactericidal concentration (MBC)) of 0.195 µg/mL (≈ 0.264 µM).
